{
  "source": "the supplement of paper PMC10307832",
  "test_in_all_cases": "relative viability (nuclei count vs DMSO), 5 days (fraction); higher = more cells survive",
  "key": {"Afatinib": {"compound": "CN(C)C/C=C/C(=O)Nc1cc2c(Nc3ccc(F)c(Cl)c3)ncnc2cc1O[C@H]1CCOC1 [Afatinib]", "outline": "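After an overnight hold at 37 °C, lung cancer cell lines in 1536-well plates were pinned with five library-drug doses (not always all listed), each √10 from the next, on vehicle-anchored plates. The cells stayed 5 days without fresh medium, then a one-step fix, permeabilisation and Hoechst stain preceded 4× imaging and MetaXpress nuclear counts. A plate passed only with control CV under 25% and at least one doubling. Viability is the median, over plates, of treated-well nuclei relative to vehicle-well nuclei.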"}, "Afatinib + Bortezomib": {"compound": "CN(C)C/C=C/C(=O)Nc1cc2c(Nc3ccc(F)c(Cl)c3)ncnc2cc1O[C@H]1CCOC1 [Afatinib] + CC(C)C[C@H](NC(=O)[C@H](Cc1ccccc1)NC(=O)c1cnccn1)B(O)O [Bortezomib] (partner 0.002 µM)", "outline": "(§1)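 A single step with final 0.05% Triton X-100, 1% formaldehyde and 1 ug/ml Hoechst fixed the cells and stained nuclei 5 days after treatment. Lung cancer cell lines in 1536-well plates had been treated by pin tool the day after seeding with one drug alone or a fixed anchor-drug dose plus five library-drug doses (not always all listed) in √10 steps, and nuclei were counted on 4× images. Relative viability is the ratio of nuclei in treated wells to nuclei in vehicle wells, taken as the median of duplicate plates.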"}, "Afatinib + Navitoclax": {"compound": "CN(C)C/C=C/C(=O)Nc1cc2c(Nc3ccc(F)c(Cl)c3)ncnc2cc1O[C@H]1CCOC1 [Afatinib] + CC1(C)CCC(c2ccc(Cl)cc2)=C(CN2CCN(c3ccc(C(=O)NS(=O)(=O)c4ccc(N[C@H](CCN5CCOCC5)CSc5ccccc5)c(S(=O)(=O)C(F)(F)F)c4)cc3)CC2)C1 [Navitoclax] (partner 0.5 µM)", "outline": "as §1"}, "Afatinib + Foretinib": {"compound": "CN(C)C/C=C/C(=O)Nc1cc2c(Nc3ccc(F)c(Cl)c3)ncnc2cc1O[C@H]1CCOC1 [Afatinib] + COc1cc2c(Oc3ccc(NC(=O)C4(C(=O)Nc5ccc(F)cc5)CC4)cc3F)ccnc2cc1OCCCN1CCOCC1 [Foretinib] (partner 0.25 µM)", "outline": "as §1"}, "Afatinib + Lapatinib": {"compound": "CN(C)C/C=C/C(=O)Nc1cc2c(Nc3ccc(F)c(Cl)c3)ncnc2cc1O[C@H]1CCOC1 [Afatinib] + CS(=O)(=O)CCNCc1ccc(-c2ccc3ncnc(Nc4ccc(OCc5cccc(F)c5)c(Cl)c4)c3c2)o1 [Lapatinib] (partner 2 µM)", "outline": "as §1"}, "Afatinib + Pictilisib": {"compound": "CN(C)C/C=C/C(=O)Nc1cc2c(Nc3ccc(F)c(Cl)c3)ncnc2cc1O[C@H]1CCOC1 [Afatinib] + CS(=O)(=O)N1CCN(Cc2cc3nc(-c4cccc5[nH]ncc45)nc(N4CCOCC4)c3s2)CC1 [Pictilisib] (partner 1 µM)", "outline": "as §1"}, "Afatinib + Crizotinib": {"compound": "CN(C)C/C=C/C(=O)Nc1cc2c(Nc3ccc(F)c(Cl)c3)ncnc2cc1O[C@H]1CCOC1 [Afatinib] + C[C@@H](Oc1cc(-c2cnn(C3CCNCC3)c2)cnc1N)c1c(Cl)ccc(F)c1Cl [Crizotinib] (partner 1 µM)", "outline": "as §1"}, "Afatinib + Linsitinib": {"compound": "CN(C)C/C=C/C(=O)Nc1cc2c(Nc3ccc(F)c(Cl)c3)ncnc2cc1O[C@H]1CCOC1 [Afatinib] + C[C@]1(O)C[C@@H](c2nc(-c3ccc4ccc(-c5ccccc5)nc4c3)c3c(N)nccn32)C1 [Linsitinib] (partner 1 µM)", "outline": "as §1"}, "Afatinib + Alpelisib": {"compound": "CN(C)C/C=C/C(=O)Nc1cc2c(Nc3ccc(F)c(Cl)c3)ncnc2cc1O[C@H]1CCOC1 [Afatinib] + Cc1nc(NC(=O)N2CCC[C@H]2C(N)=O)sc1-c1ccnc(C(C)(C)C(F)(F)F)c1 [Alpelisib] (partner 2 µM)", "outline": "as §1"}, "Afatinib + Olaparib": {"compound": "CN(C)C/C=C/C(=O)Nc1cc2c(Nc3ccc(F)c(Cl)c3)ncnc2cc1O[C@H]1CCOC1 [Afatinib] + O=C(c1cc(Cc2n[nH]c(=O)c3ccccc23)ccc1F)N1CCN(C(=O)C2CC2)CC1 [Olaparib] (partner 8 µM)", "outline": "as §1"}},
  "data": [
    {"cell line": "NCI-H1299", "values": [
      {"measurement": "relative viability", "setting": "Afatinib; 0.005 µM", "value": 0.992},
      {"measurement": "relative viability", "setting": "Afatinib; 0.01581 µM", "value": 0.992},
      {"measurement": "relative viability", "setting": "Afatinib; 0.05 µM", "value": 1.06},
      {"measurement": "relative viability", "setting": "Afatinib; 0.1581 µM", "value": 1.01},
      {"measurement": "relative viability", "setting": "Afatinib; 0.5 µM", "value": 0.98},
      {"measurement": "relative viability", "setting": "Afatinib + Bortezomib; first compound 0.005 µM", "value": 0.983},
      {"measurement": "relative viability", "setting": "Afatinib + Bortezomib; first compound 0.01581 µM", "value": 0.978},
      {"measurement": "relative viability", "setting": "Afatinib + Bortezomib; first compound 0.05 µM", "value": 1.12},
      {"measurement": "relative viability", "setting": "Afatinib + Bortezomib; first compound 0.1581 µM", "value": 1.02},
      {"measurement": "relative viability", "setting": "Afatinib + Bortezomib; first compound 0.5 µM", "value": 1.04},
      {"measurement": "relative viability", "setting": "Afatinib + Navitoclax; first compound 0.005 µM", "value": 1.02},
      {"measurement": "relative viability", "setting": "Afatinib + Navitoclax; first compound 0.01581 µM", "value": 1.02},
      {"measurement": "relative viability", "setting": "Afatinib + Navitoclax; first compound 0.05 µM", "value": 1.13},
      {"measurement": "relative viability", "setting": "Afatinib + Navitoclax; first compound 0.1581 µM", "value": 1.11},
      {"measurement": "relative viability", "setting": "Afatinib + Navitoclax; first compound 0.5 µM", "value": 1.06},
      {"measurement": "relative viability", "setting": "Afatinib + Foretinib; first compound 0.005 µM", "value": 1.14},
      {"measurement": "relative viability", "setting": "Afatinib + Foretinib; first compound 0.01581 µM", "value": 1.06},
      {"measurement": "relative viability", "setting": "Afatinib + Foretinib; first compound 0.05 µM", "value": 1.15},
      {"measurement": "relative viability", "setting": "Afatinib + Foretinib; first compound 0.1581 µM", "value": 1.12},
      {"measurement": "relative viability", "setting": "Afatinib + Foretinib; first compound 0.5 µM", "value": 1.17},
      {"measurement": "relative viability", "setting": "Afatinib + Lapatinib; first compound 0.005 µM", "value": 0.98},
      {"measurement": "relative viability", "setting": "Afatinib + Lapatinib; first compound 0.01581 µM", "value": 0.946},
      {"measurement": "relative viability", "setting": "Afatinib + Lapatinib; first compound 0.05 µM", "value": 0.973},
      {"measurement": "relative viability", "setting": "Afatinib + Lapatinib; first compound 0.1581 µM", "value": 0.969},
      {"measurement": "relative viability", "setting": "Afatinib + Lapatinib; first compound 0.5 µM", "value": 0.96},
      {"measurement": "relative viability", "setting": "Afatinib + Pictilisib; first compound 0.005 µM", "value": 0.84},
      {"measurement": "relative viability", "setting": "Afatinib + Pictilisib; first compound 0.01581 µM", "value": 0.828},
      {"measurement": "relative viability", "setting": "Afatinib + Pictilisib; first compound 0.05 µM", "value": 0.927},
      {"measurement": "relative viability", "setting": "Afatinib + Pictilisib; first compound 0.1581 µM", "value": 0.647},
      {"measurement": "relative viability", "setting": "Afatinib + Pictilisib; first compound 0.5 µM", "value": 0.68},
      {"measurement": "relative viability", "setting": "Afatinib + Crizotinib; first compound 0.005 µM", "value": 1.01},
      {"measurement": "relative viability", "setting": "Afatinib + Crizotinib; first compound 0.01581 µM", "value": 0.961},
      {"measurement": "relative viability", "setting": "Afatinib + Crizotinib; first compound 0.05 µM", "value": 0.983},
      {"measurement": "relative viability", "setting": "Afatinib + Crizotinib; first compound 0.1581 µM", "value": 0.97},
      {"measurement": "relative viability", "setting": "Afatinib + Crizotinib; first compound 0.5 µM", "value": 0.934},
      {"measurement": "relative viability", "setting": "Afatinib + Linsitinib; first compound 0.005 µM", "value": 0.978},
      {"measurement": "relative viability", "setting": "Afatinib + Linsitinib; first compound 0.01581 µM", "value": 0.951},
      {"measurement": "relative viability", "setting": "Afatinib + Linsitinib; first compound 0.05 µM", "value": 0.987},
      {"measurement": "relative viability", "setting": "Afatinib + Linsitinib; first compound 0.1581 µM", "value": 1.06},
      {"measurement": "relative viability", "setting": "Afatinib + Linsitinib; first compound 0.5 µM", "value": 0.97},
      {"measurement": "relative viability", "setting": "Afatinib + Alpelisib; first compound 0.005 µM", "value": 1.05},
      {"measurement": "relative viability", "setting": "Afatinib + Alpelisib; first compound 0.01581 µM", "value": 1.04},
      {"measurement": "relative viability", "setting": "Afatinib + Alpelisib; first compound 0.05 µM", "value": 1.12},
      {"measurement": "relative viability", "setting": "Afatinib + Alpelisib; first compound 0.1581 µM", "value": 1.08},
      {"measurement": "relative viability", "setting": "Afatinib + Alpelisib; first compound 0.5 µM", "value": 1.04},
      {"measurement": "relative viability", "setting": "Afatinib + Olaparib; first compound 0.005 µM", "value": 0.981},
      {"measurement": "relative viability", "setting": "Afatinib + Olaparib; first compound 0.01581 µM", "value": 0.948},
      {"measurement": "relative viability", "setting": "Afatinib + Olaparib; first compound 0.05 µM", "value": 0.991},
      {"measurement": "relative viability", "setting": "Afatinib + Olaparib; first compound 0.1581 µM", "value": 1.02},
      {"measurement": "relative viability", "setting": "Afatinib + Olaparib; first compound 0.5 µM", "value": 0.988}
    ]}
  ]
}
